Test results: patent US8841291B2, “Selective hydroxamic acid based MMP-12 and MMP-13 inhibitors” (Novartis AG, priority 2008, dated 2014)
Read-outs that look alike come from different tables or passages of the source.

How the values were obtained:
[1] = molecular target: T1, Gelatinase (MMP-2) (Homo sapiens, UniProt P08253); assay: Gelatinase (MMP-2) inhibitory activity, fluorogenic peptide substrate assay; format: biochemical
T1 sequence (P08253 110-660): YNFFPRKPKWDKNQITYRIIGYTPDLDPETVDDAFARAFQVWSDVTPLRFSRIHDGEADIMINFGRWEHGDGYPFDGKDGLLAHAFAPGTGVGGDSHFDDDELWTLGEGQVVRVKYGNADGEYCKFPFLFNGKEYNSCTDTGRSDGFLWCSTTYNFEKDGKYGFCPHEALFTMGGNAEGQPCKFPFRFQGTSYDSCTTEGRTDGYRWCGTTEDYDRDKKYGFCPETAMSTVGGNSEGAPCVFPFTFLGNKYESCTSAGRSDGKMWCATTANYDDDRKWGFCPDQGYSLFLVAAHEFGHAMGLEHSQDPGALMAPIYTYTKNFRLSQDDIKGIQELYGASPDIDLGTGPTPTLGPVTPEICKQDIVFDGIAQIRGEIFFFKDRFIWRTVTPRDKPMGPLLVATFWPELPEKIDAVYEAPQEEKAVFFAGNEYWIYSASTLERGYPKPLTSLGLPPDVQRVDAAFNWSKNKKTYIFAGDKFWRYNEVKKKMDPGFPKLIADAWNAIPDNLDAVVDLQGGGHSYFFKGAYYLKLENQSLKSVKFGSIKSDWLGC
Experimental: (§1) Stock solutions of inhibitors (0.03 mM-3 mM) are also prepared in DMSO. The inhibitors are diluted into the assay solutions, and the controls use an equal volume of DMSO so that the final DMSO concentration from the inhibitor and substrate dilutions in all assays is 1.0%. Assays are performed in an assay buffer (100 mM sodium chloride, 10 μM ZnCl. Sub 2, 10 mM CaCl2, 100 mM Tris-Cl pH7.5, 0.05% Brij-35), containing 1.0% DMSO from the substrate and inhibitor additions. The substrate concentration used in the assays is 5 μM. The assays are carried out at 20-25° C. […] The reaction mixtures are added in duplicate into appropriate wells of a 384-well assay plate. The reaction mixtures are preincubated with the inhibitors for 60 minutes The reactions are started by the addition of MMP substrate, and the fluorescence intensity changes are measured after 60 minutes The apparent enzyme activity in the presence of an inhibitor is then compared with that in the absence of any inhibitor to determine the inhibition effect of the inhibitor.

[2] = molecular target: Collagenase-3 (MMP-13) (Homo sapiens, UniProt P45452); assay: Collagenase-3 (MMP-13) inhibitory activity, fluorogenic peptide substrate assay; format: biochemical
Experimental: as §1
Collagenase-3 (MMP-13) inhibitory activity is determined as described above. Recombinant pro-collagenase-3 is activated with 1 mM APMA, and stored in the assay buffer after extensive dialysis in the assay buffer.

[3] = substrate 5 μM, 60 min preincubation, 20-25° C., read-out: MMP2 IC50
[4] = recombinant pro-collagenase-3 activated with 1 mM APMA, read-out: MMP13 IC50

With CC(C)CCNc1ccc2ccc(S(=O)(=O)N(CCC(C)C)[C@@H](C(=O)NO)C(C)C)cc2c1 [Example 57, N-Hydroxy-3-methyl-2-{(3-methyl-butyl)-[7-(3-methyl-butylamino)-naphthalene-2-sulfonyl]-amino}-butyramide] as the compound, how does the IC50 [1, 3] read?
Its IC50 is over 3000 nM.

What about the IC50 [2, 4] of the same compound?
Its IC50 is 1580 nM.

Which IC50 [1, 3] does the source give for CC(C)[C@H](C(=O)NO)N(CCOc1ccc(Cl)cc1)S(=O)(=O)c1ccc2ccccc2c1 [Example 58, (R)-2-[[2-(4-Chloro-phenoxy)-ethyl]-(naphthalene-2-sulfonyl)-amino]-N-hydroxy-3-methyl-butyramide] here?
Its IC50 is 2650 nM.

What about the IC50 [2, 4] of the same compound?
Its IC50 is 116 nM.

For CC1=CC[C@H](C(=O)NO)N(S(=O)(=O)c2ccc3ccccc3c2)C1 [Example 60, (R)-5-Methyl-1-(naphthalene-2-sulfonyl)-1,2,3,6-tetrahydro-pyridine-2-carboxylic acid hydroxyamide], which IC50 [1, 3] is on record?
The IC50 was 12.5 nM.

And the IC50 [2, 4]?
Its IC50 is 0.9 nM.

CC(=O)Nc1ccc2ccc(S(=O)(=O)N(CCC(C)C)[C@@H](C(=O)NO)C(C)C)cc2c1 [Example 61, 2-[(7-Acetylamino-naphthalene-2-sulfonyl)-(3-methyl-butyl)-amino]-N-hydroxy-3-methyl-butyramide] was tested. Which IC50 [1, 3] did it give?
Its IC50 is 22.8 nM.

What about the IC50 [2, 4] of the same compound?
Its IC50 is 0.5 nM.

Which IC50 [1, 3] does the source give for CC(C)[C@H](C(=O)NO)N(CCOc1cccc(Cl)c1)S(=O)(=O)c1ccc2ccccc2c1 [Example 62, N-(2-(3-chlorophenoxy)ethyl)-N-(naphthalene-2-sulfonyl)-D-valine hydroxamic acid] here?
The IC50 was 3890 nM.

And the IC50 [2, 4]?
The IC50 was 138 nM.

Which IC50 [1, 3] does the source give for O=C(NO)[C@H]1CC=CCN1S(=O)(=O)c1ccc2ncccc2c1 [Example 63, (R)-1-(Quinoline-6-sulfonyl)-1,2,3,6-tetrahydro-pyridine-2-carboxylic acid hydroxyamide] here?
Its IC50 is 54.7 nM.

What about the IC50 [2, 4] of the same compound?
The IC50 was 10.5 nM.

Which results are given for CC(C)[C@H](C(=O)NO)N(CCOc1ccccc1Cl)S(=O)(=O)c1ccc2ccccc2c1 [Example 64, N-(2-(2-chlorophenoxy)ethyl)-N-(naphthalene-2-sulfonyl)-D-valine hydroxamic acid]?
IC50 [1, 3]: 898 nM; IC50 [2, 4]: 16.1 nM

What does the source list for CC(C)CCN(C(C)(C)C(=O)NO)S(=O)(=O)c1ccc2ccccc2c1 [Example 65, N-Hydroxy-2-methyl-2-[(3-methyl-butyl)-(naphthalene-2-sulfonyl)-amino]-propionamide]?
IC50 [1, 3]: 2860 nM; IC50 [2, 4]: 2260 nM

For C=CCOc1ccc2cc(S(=O)(=O)N(CCC(C)C)[C@@H](C(=O)NO)C(C)C)ccc2c1 [Example 66, 2-[(6-Allyloxy-naphthalene-2-sulfonyl)-(3-methyl-butyl)-amino]-N-hydroxy-3-methyl-butyramide], which IC50 [1, 3] is on record?
Its IC50 is 128 nM.

And the IC50 [2, 4]?
The IC50 was 7.3 nM.

Which IC50 [1, 3] does the source give for CCOc1ccc2ccc(S(=O)(=O)N(Cc3cccnc3)[C@@H](C(=O)NO)C(C)C)cc2c1 [Example 68, 2-[(7-Ethoxy-naphthalene-2-sulfonyl)-pyridin-3-ylmethyl-amino]-N-hydroxy-3-methyl-butyramide] here?
Its IC50 is 976 nM.

And the IC50 [2, 4]?
Its IC50 is 28.7 nM.

What does the source list for CC(C)CCN(C1(C(=O)NO)CCCC1)S(=O)(=O)c1ccc2ccccc2c1 [Example 70, 1-[(3-Methyl-butyl)-(naphthalene-2-sulfonyl)-amino]-cyclopentanecarboxylic acid hydroxyamide]?
IC50 [1, 3]: 940 nM; IC50 [2, 4]: 212 nM

CC(=O)N(CCC(C)C)c1ccc2ccc(S(=O)(=O)N(CCC(C)C)[C@@H](C(=O)NO)C(C)C)cc2c1 [Example 71, 2-[{7-[Acetyl-(3-methyl-butyl)-amino]-naphthalene-2-sulfonyl}-(3-methyl-butyl)-amino]-N-hydroxy-3-methyl-butyramide] was tested. Which IC50 [1, 3] did it give?
The IC50 was over 30000 nM.

What about the IC50 [2, 4] of the same compound?
The IC50 was over 30000 nM.

With O=C(NO)[C@H]1CC=CCN1S(=O)(=O)c1cnc2ccccc2c1 [Example 72, (R)-1-(Quinoline-3-sulfonyl)-1,2,3,6-tetrahydro-pyridine-2-carboxylic acid hydroxyamide] as the compound, how does the IC50 [1, 3] read?
Its IC50 is 853 nM.

What about the IC50 [2, 4] of the same compound?
Its IC50 is 95.7 nM.

With CC(C)CCN(C1(C(=O)NO)CC1)S(=O)(=O)c1ccc2ccccc2c1 [Example 73, 1-[(3-Methyl-butyl)-(naphthalene-2-sulfonyl)-amino]-cyclopropanecarboxylic acid hydroxyamide] as the compound, how does the IC50 [1, 3] read?
The IC50 was 402 nM.

And the IC50 [2, 4]?
The IC50 was 35 nM.

Which results are given for CC(C)(C)OC(=O)N1CCC([C@@H](NS(=O)(=O)c2ccc3ccccc3c2)C(=O)NO)CC1 [Example 74, 4-[Hydroxycarbamoyl-(naphthalene-2-sulfonylamino)-methyl]-piperidine-1-carboxylic acid tert-butyl ester]?
IC50 [1, 3]: 0.4 nM; IC50 [2, 4]: 0.4 nM

Cc1ccc(C)c(OCCN([C@@H](C(=O)NO)C(C)C)S(=O)(=O)c2ccc3ccccc3c2)c1C [Example 75, N-(2-(2,3,6-trimethylphenoxy)ethyl)-N-(naphthalene-2-sulfonyl)-D-valine hydroxamic acid] was tested. Which IC50 [1, 3] did it give?
Its IC50 is 3110 nM.

What about the IC50 [2, 4] of the same compound?
The IC50 was 67.3 nM.

COc1c(S(=O)(=O)N2CC=CC[C@@H]2C(=O)NO)ccc2ccccc12 [Example 78, (R)-1-(1-Methoxy-naphthalene-2-sulfonyl)-1,2,3,6-tetrahydro-pyridine-2-carboxylic acid hydroxyamide] was tested. Which IC50 [1, 3] did it give?
The IC50 was 19.9 nM.

What about the IC50 [2, 4] of the same compound?
The IC50 was 2.1 nM.

For COc1c(S(=O)(=O)N(CCC(C)C)[C@@H](C(=O)NO)C(C)C)ccc2ccccc12 [Example 79, (R)—N-Hydroxy-2-[(1-methoxy-naphthalene-2-sulfonyl)-(3-methyl-butyl)-amino]-3-methyl-butyramide], which IC50 [1, 3] is on record?
The IC50 was 51.8 nM.

What about the IC50 [2, 4] of the same compound?
Its IC50 is 1.1 nM.

How did the IC50 ([1]; read-out: IC50 (Gelatinase (MMP-2) inhibitory activity)) turn out when CC(C)CCN([C@@H](C(=O)NO)C(C)C)S(=O)(=O)c1ccc2ccccc2c1Cl [Example 80, 2-[(1-Chloro-naphthalene-2-sulfonyl)-(3-methyl-butyl)-amino]-N-hydroxy-3-methyl-butyramide] was run?
The IC50 was 55 nM.

And the IC50 [1, 3]?
The IC50 was 779 nM.

What about the IC50 ([2]; read-out: IC50 (Collagenase-3 (MMP-13) inhibitory activity)) of the same compound?
Its IC50 is about 113 nM.

And the IC50 [2, 4]?
The IC50 was 118 nM.

What does the source list for CC(C)CCN([C@@H](C(=O)NO)C1CCN(C(=O)OC(C)(C)C)CC1)S(=O)(=O)c1ccc2ccccc2c1 [Example 82, 4-{Hydroxycarbamoyl-[(3-methyl-butyl)-(naphthalene-2-sulfonyl)-amino]-methyl}-piperidine-1-carboxylic acid tert-butyl ester]?
IC50 [1, 3]: < 0.3 nM; IC50 [2, 4]: < 0.3 nM

Which results are given for O=C(NO)[C@H]1[C@@H]2CCCC[C@@H](C2)N1S(=O)(=O)c1ccc2ccccc2c1 [Example 83, 7-(Naphthalene-2-sulfonyl)-7-aza-bicyclo[4.2.1]nonane-8-carboxylic acid hydroxyamide]?
IC50 [1, 3]: 770 nM; IC50 [2, 4]: 135 nM

Which IC50 [1, 3] does the source give for CC(C)CCN([C@@H](C(=O)NO)C(C)C)S(=O)(=O)c1ccc2ccc(N)cc2c1 [Example 84, 2-[(7-Amino-naphthalene-2-sulfonyl)-(3-methyl-butyl)-amino]-N-hydroxy-3-methyl-butyramide] here?
Its IC50 is over 1000 nM.

What about the IC50 [2, 4] of the same compound?
Its IC50 is 52.1 nM.

Which results are given for Cc1ccc2ccc(S(=O)(=O)N(CCC(C)C)[C@@H](C(=O)NO)C(C)C)cc2c1 [Example 85, N-isoamyl-N-(6-methylnaphthalene-2-sulfonyl)-D-valine hydroxamic acid]?
IC50 [1, 3]: 3350 nM; IC50 [2, 4]: 134 nM

CC(C)CCOc1ccc2ccc(S(=O)(=O)N(CCC(C)C)[C@@H](C(=O)NO)C(C)C)cc2c1 [Example 86, (R)—N-Hydroxy-3-methyl-2-[[7-(3-methyl-butoxy)-naphthalene-2-sulfonyl]-(3-methyl-butyl)-amino]-butyramide] was tested. Which IC50 [1, 3] did it give?
Its IC50 is over 10000 nM.

And the IC50 [2, 4]?
Its IC50 is 3250 nM.
